Experimental data reported in PubChem BioAssay AID1963868 (Molecular Pharmacology Branch, DTP, NCI, 2024).
pIC50: −log10 of the molar value.

Test system: KRAS PDC tumor spheroids (HUVEC+MSC), viability
Assay: Anticancer human tumor 254851-301-R-J1-PDC patient-derived colon carcinoma cell line growth inhibition [KRAS2]
Settings: for pIC50: curve of first compound; for viability, T/C: stronger effect = lower value
Method in brief: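 Combination screen of spheroid viability in tumor-cell co-cultures with endothelial (HUVEC) and mesenchymal stem cell stroma. Each agent was tested in half-log dilutions, topping at clinical Cmax or at 10 microM without a known Cmax.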

[1] = second compound 0.1 µM, first compound 0.0316 µM
[2] = second compound 0.1 µM, first compound 0.1 µM
[3] = second compound 0.1 µM, first compound 0.316 µM
[4] = second compound 0.1 µM, first compound 1 µM
[5] = second compound 0.1 µM, first compound 3.16 µM
[6] = second compound 0.1 µM, first compound 10 µM
[7] = second compound 0.316 µM, first compound 0.0316 µM
[8] = second compound 0.316 µM, first compound 0.1 µM
[9] = second compound 0.316 µM, first compound 0.316 µM
[10] = second compound 0.316 µM, first compound 1 µM
[11] = second compound 0.316 µM, first compound 3.16 µM
[12] = second compound 0.316 µM, first compound 10 µM
[13] = second compound 1 µM, first compound 0.0316 µM
[14] = second compound 1 µM, first compound 0.1 µM
[15] = second compound 1 µM, first compound 0.316 µM
[16] = second compound 1 µM, first compound 1 µM
[17] = second compound 1 µM, first compound 3.16 µM
[18] = second compound 1 µM, first compound 10 µM
[19] = second compound 3.16 µM, first compound 0.0316 µM
[20] = second compound 3.16 µM, first compound 0.1 µM
[21] = second compound 3.16 µM, first compound 0.316 µM
[22] = second compound 3.16 µM, first compound 1 µM
[23] = second compound 3.16 µM, first compound 3.16 µM
[24] = second compound 3.16 µM, first compound 10 µM
[25] = second compound 10 µM, first compound 0.0316 µM
[26] = second compound 10 µM, first compound 0.1 µM
[27] = second compound 10 µM, first compound 0.316 µM
[28] = second compound 10 µM, first compound 1 µM
[29] = second compound 10 µM, first compound 3.16 µM
[30] = second compound 10 µM, first compound 10 µM
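Further: spheroids exposed to compounds for seven days before readout.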
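Wherever viability, T/C is given: 100% = DMSO vehicle control luminescence of the spheroids.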

CC1(C)CCC(CN2CCN(c3ccc(C(=O)NS(=O)(=O)c4ccc(NCC5CCOCC5)c([N+](=O)[O-])c4)c(Oc4cnc5[nH]ccc5c4)c3)CC2)=C(c2ccc(Cl)cc2)C1 + COc1cc2nc(C)nc(NC(C)c3cc(N)cc(C(F)(F)F)c3)c2cc1OC1CCOC1
pIC50 (second compound 0.1 µM): < 5.00 | pIC50 (second compound 0.316 µM): < 5.00 | pIC50 (second compound 1 µM): < 5.00 | pIC50 (second compound 3.16 µM): 5.43 | pIC50 (second compound 10 µM): 5.76 | viability, T/C [1]: 103% | viability, T/C [2]: 95% | viability, T/C [3]: 95.7% | viability, T/C [4]: 97.6% | viability, T/C [5]: 91.2% | viability, T/C [6]: 83.2% | viability, T/C [7]: 86.5% | viability, T/C [8]: 83.9% | viability, T/C [9]: 92% | viability, T/C [10]: 79.3% | viability, T/C [11]: 88.6% | viability, T/C [12]: 66.4% | viability, T/C [13]: 88.7% | viability, T/C [14]: 88.1% | viability, T/C [15]: 79.8% | viability, T/C [16]: 78.1% | viability, T/C [17]: 74.9% | viability, T/C [18]: 49.2% | viability, T/C [19]: 82.2% | viability, T/C [20]: 89.3% | viability, T/C [21]: 81.2% | viability, T/C [22]: 76.4% | viability, T/C [23]: 53.3% | viability, T/C [24]: 29.6% | viability, T/C [25]: 86.6% | viability, T/C [26]: 83.8% | viability, T/C [27]: 72.5% | viability, T/C [28]: 73.9% | viability, T/C [29]: 24.2% | viability, T/C [30]: 6.7%

CC1COCCN1c1cc(-c2ccnn2C)c2ccnc(-c3ccn[nH]3)c2n1 (centres undefined)
viability, T/C (compound 0.01 µM): 99.3% [middle of 5 runs] | viability, T/C (compound 0.316 µM): 47.7% [middle of 5 runs] | viability, T/C (compound 1 µM): 38.6% [middle of 5 runs] | viability, T/C (compound 3.16 µM): 24.1% [middle of 5 runs]

COc1cc2nccc(Oc3ccc(NC(=O)C4(C(=O)Nc5ccc(F)cc5)CC4)cc3)c2cc1OC + C=CC(=O)N1CCN(c2nc(OCC3CCCN3C)nc3c2CCN(c2cccc4cccc(C)c24)C3)CC1CC#N
pIC50 (second compound 0.0316 µM): < 5.00 | pIC50 (second compound 0.1 µM): 5.04 | pIC50 (second compound 0.316 µM): 5.04 | pIC50 (second compound 1 µM): 5.17 | pIC50 (second compound 3.16 µM): 6.08 | viability, T/C (second compound 0.0316 µM, first compound 0.0316 µM): 98.5% | viability, T/C (second compound 0.0316 µM, first compound 0.1 µM): 103% | viability, T/C (second compound 0.0316 µM, first compound 0.316 µM): 96.2% | viability, T/C (second compound 0.0316 µM, first compound 1 µM): 112% | viability, T/C (second compound 0.0316 µM, first compound 3.16 µM): 100% | viability, T/C (second compound 0.0316 µM, first compound 10 µM): 52.3% | viability, T/C [1]: 115% | viability, T/C [2]: 111% | viability, T/C [3]: 109% | viability, T/C [4]: 94.1% | viability, T/C [5]: 103% | viability, T/C [6]: 45% | viability, T/C [7]: 111% | viability, T/C [8]: 106% | viability, T/C [9]: 110% | viability, T/C [10]: 110% | viability, T/C [11]: 96% | viability, T/C [12]: 45.8% | viability, T/C [13]: 108% | viability, T/C [14]: 104% | viability, T/C [15]: 99.3% | viability, T/C [16]: 98.1% | viability, T/C [17]: 80.5% | viability, T/C [18]: 34.2% | viability, T/C [19]: 56.9% | viability, T/C [20]: 64.8% | viability, T/C [21]: 66.4% | viability, T/C [22]: 47.6% | viability, T/C [23]: 2.41% | viability, T/C [24]: 0.18%

CC1OCC2(CCN(c3cnc(Sc4ccnc(N)c4Cl)c(N)n3)CC2)C1N (centres undefined) + COc1cc2nc(C)nc(NC(C)c3cc(N)cc(C(F)(F)F)c3)c2cc1OC1CCOC1
pIC50 (second compound 0.1 µM): < 5.00 | pIC50 (second compound 0.316 µM): < 5.00 | pIC50 (second compound 1 µM): < 5.00 | pIC50 (second compound 3.16 µM): < 5.00 | pIC50 (second compound 10 µM): < 5.00 | viability, T/C [1]: 118% | viability, T/C [2]: 102% | viability, T/C [3]: 91.7% | viability, T/C [4]: 78.3% | viability, T/C [5]: 82.6% | viability, T/C [6]: 75.2% | viability, T/C [7]: 105% | viability, T/C [8]: 99.9% | viability, T/C [9]: 107% | viability, T/C [10]: 80% | viability, T/C [11]: 80.7% | viability, T/C [12]: 76.7% | viability, T/C [13]: 98.7% | viability, T/C [14]: 109% | viability, T/C [15]: 103% | viability, T/C [16]: 78.4% | viability, T/C [17]: 78.6% | viability, T/C [18]: 70.3% | viability, T/C [19]: 83.8% | viability, T/C [20]: 87.8% | viability, T/C [21]: 78.6% | viability, T/C [22]: 69.8% | viability, T/C [23]: 80% | viability, T/C [24]: 62.8% | viability, T/C [25]: 76.4% | viability, T/C [26]: 82.5% | viability, T/C [27]: 70.9% | viability, T/C [28]: 72% | viability, T/C [29]: 64.4% | viability, T/C [30]: 64.3%

CCN1CCN(Cc2ccc(Nc3ncc(F)c(-c4cc(F)c5nc(C)n(C(C)C)c5c4)n3)nc2)CC1 + CNCc1ccccc1-c1csc(C(C)Nc2nc(C)nc3cc(OC)c(OC)cc23)c1
pIC50 (second compound 0.1 µM): 6.18 | pIC50 (second compound 0.316 µM): 6.29 | pIC50 (second compound 1 µM): 6.31 | pIC50 (second compound 3.16 µM): > 8.50 | pIC50 (second compound 10 µM): > 8.50 | viability, T/C (second compound 0.1 µM, first compound 0.00316 µM): 91.4% | viability, T/C (second compound 0.1 µM, first compound 0.01 µM): 94.5% | viability, T/C [1]: 76.8% | viability, T/C [2]: 69.1% | viability, T/C [3]: 70.9% | viability, T/C [4]: 40.4% | viability, T/C (second compound 0.316 µM, first compound 0.00316 µM): 110% | viability, T/C (second compound 0.316 µM, first compound 0.01 µM): 86.2% | viability, T/C [7]: 84% | viability, T/C [8]: 63.1% | viability, T/C [9]: 59.9% | viability, T/C [10]: 41% | viability, T/C (second compound 1 µM, first compound 0.00316 µM): 83.4% | viability, T/C (second compound 1 µM, first compound 0.01 µM): 83.6% | viability, T/C [13]: 81% | viability, T/C [14]: 62.6% | viability, T/C [15]: 63.1% | viability, T/C [16]: 35.8% | viability, T/C (second compound 3.16 µM, first compound 0.00316 µM): 42.2% | viability, T/C (second compound 3.16 µM, first compound 0.01 µM): 35.1% | viability, T/C [19]: 26.4% | viability, T/C [20]: 21.7% | viability, T/C [21]: 17.9% | viability, T/C [22]: 14.7% | viability, T/C (second compound 10 µM, first compound 0.00316 µM): 0.07% | viability, T/C (second compound 10 µM, first compound 0.01 µM): 0.09% | viability, T/C [25]: 0.09% | viability, T/C [26]: 0.06% | viability, T/C [27]: 0.07% | viability, T/C [28]: 0.11%

O=C(c1cc(Cc2n[nH]c(=O)c3ccccc23)ccc1F)N1CCN(C(=O)C2CC2)CC1 + CC1OCC2(CCN(c3cnc(Sc4ccnc(N)c4Cl)c(N)n3)CC2)C1N
pIC50 (second compound 0.1 µM): < 5.00 | pIC50 (second compound 0.316 µM): < 5.00 | pIC50 (second compound 1 µM): < 5.00 | pIC50 (second compound 3.16 µM): < 5.00 | pIC50 (second compound 10 µM): < 5.00 | viability, T/C [1]: 104% | viability, T/C [2]: 107% | viability, T/C [3]: 93.8% | viability, T/C [4]: 88% | viability, T/C [5]: 102% | viability, T/C [6]: 91.3% | viability, T/C [7]: 92.8% | viability, T/C [8]: 95% | viability, T/C [9]: 90.6% | viability, T/C [10]: 93.7% | viability, T/C [11]: 94.7% | viability, T/C [12]: 92.4% | viability, T/C [13]: 93.6% | viability, T/C [14]: 87.1% | viability, T/C [15]: 80.6% | viability, T/C [16]: 83.7% | viability, T/C [17]: 87.6% | viability, T/C [18]: 84% | viability, T/C [19]: 79.4% | viability, T/C [20]: 73.1% | viability, T/C [21]: 73.2% | viability, T/C [22]: 71.2% | viability, T/C [23]: 79.3% | viability, T/C [24]: 65.5% | viability, T/C [25]: 68.9% | viability, T/C [26]: 75.4% | viability, T/C [27]: 66.1% | viability, T/C [28]: 59.9% | viability, T/C [29]: 58.1% | viability, T/C [30]: 60.7%

O=C(c1cc(Cc2n[nH]c(=O)c3ccccc23)ccc1F)N1CCN(C(=O)C2CC2)CC1 + C=CC(=O)N1CCN(c2nc(=O)n(-c3c(C)ccnc3C(C)C)c3nc(-c4c(O)cccc4F)c(F)cc23)C(C)C1
pIC50 (second compound 0.1 µM): < 5.00 | pIC50 (second compound 0.316 µM): < 5.00 | pIC50 (second compound 1 µM): < 5.00 | pIC50 (second compound 3.16 µM): < 5.00 | pIC50 (second compound 10 µM): < 5.00 | viability, T/C [1]: 104% | viability, T/C [2]: 100% | viability, T/C [3]: 101% | viability, T/C [4]: 103% | viability, T/C [5]: 95.6% | viability, T/C [6]: 89.5% | viability, T/C [7]: 116% | viability, T/C [8]: 104% | viability, T/C [9]: 96% | viability, T/C [10]: 97% | viability, T/C [11]: 101% | viability, T/C [12]: 97.2% | viability, T/C [13]: 111% | viability, T/C [14]: 101% | viability, T/C [15]: 111% | viability, T/C [16]: 104% | viability, T/C [17]: 106% | viability, T/C [18]: 92% | viability, T/C [19]: 106% | viability, T/C [20]: 102% | viability, T/C [21]: 105% | viability, T/C [22]: 100% | viability, T/C [23]: 102% | viability, T/C [24]: 95.7% | viability, T/C [25]: 107% | viability, T/C [26]: 114% | viability, T/C [27]: 105% | viability, T/C [28]: 110% | viability, T/C [29]: 101% | viability, T/C [30]: 107%
